Values after ≈ are worked out from the molar mass of the structure shown.
Assays:
Streptococcus pyogenes = test: Antibacterial activity against erythromycin-resistant Streptococcus pyogenes ATCC 19615 assessed as inhibition of visible bacterial growth incubated for 18 hrs by broth microdilution method; format: functional
Streptococcus agalactiae [1] = test: Antibacterial activity against erythromycin-resistant Streptococcus agalactiae 19-9 assessed as inhibition of visible bacterial growth incubated for 18 hrs by broth microdilution method; format: functional
Streptococcus pneumoniae [2] = test: Antibacterial activity against erythromycin-resistant Streptococcus pneumoniae SPN19-14 assessed as inhibition of visible bacterial growth incubated for 18 hrs by broth microdilution method; format: functional
Streptococcus pneumoniae [3] = test: Antibacterial activity against erythromycin-resistant Streptococcus pneumoniae SPN19-13 assessed as inhibition of visible bacterial growth incubated for 18 hrs by broth microdilution method; format: functional
Streptococcus pneumoniae [4] = test: Antibacterial activity against erythromycin-resistant Streptococcus pneumoniae SPN19-8 assessed as inhibition of visible bacterial growth incubated for 18 hrs by broth microdilution method; format: functional
[5] = test system: Staphylococcus epidermidis; test: Antibacterial activity against erythromycin-resistant Staphylococcus epidermidis 19-11 assessed as inhibition of visible bacterial growth incubated for 18 hrs by broth microdilution method; format: functional
[6] = test system: Staphylococcus epidermidis; test: Antibacterial activity against erythromycin-resistant Staphylococcus epidermidis 19-9 assessed as inhibition of visible bacterial growth incubated for 18 hrs by broth microdilution method; format: functional
[7] = test system: Staphylococcus epidermidis; test: Antibacterial activity against erythromycin-resistant Staphylococcus epidermidis 19-8 assessed as inhibition of visible bacterial growth incubated for 18 hrs by broth microdilution method; format: functional
[8] = test system: Staphylococcus epidermidis; test: Antibacterial activity against erythromycin-resistant Staphylococcus epidermidis 19-6 assessed as inhibition of visible bacterial growth incubated for 18 hrs by broth microdilution method; format: functional
[9] = test system: Staphylococcus epidermidis; test: Antibacterial activity against erythromycin-resistant Staphylococcus epidermidis 19-4 assessed as inhibition of visible bacterial growth incubated for 18 hrs by broth microdilution method; format: functional
[10] = test system: Staphylococcus epidermidis; test: Antibacterial activity against erythromycin-resistant Staphylococcus epidermidis 19-5 assessed as inhibition of visible bacterial growth incubated for 18 hrs by broth microdilution method; format: functional
Moraxella catarrhalis [11] = test: Antibacterial activity against Moraxella catarrhalis BCA 19-5 assessed as inhibition of bacterial growth incubated for 24 hrs by CLSI based broth microdilution method; format: functional
Moraxella catarrhalis [12] = test: Antibacterial activity against Moraxella catarrhalis BCA 19-6 assessed as inhibition of bacterial growth incubated for 24 hrs by CLSI based broth microdilution method; format: functional; conditions: Moraxella catarrhalis, BCA 19-6, 24 h, read-out: MIC
Moraxella catarrhalis [13] = test: Antibacterial activity against Moraxella catarrhalis BCA 19-31 assessed as inhibition of bacterial growth incubated for 24 hrs by CLSI based broth microdilution method; format: functional; conditions: BCA 19-31, 24 h
Haemophilus influenzae [14] = test: Antibacterial activity against Haemophilus influenzae HIN 19-15 assessed as inhibition of bacterial growth incubated for 20 to 24 hrs by CLSI based broth microdilution method; format: functional; conditions: time 20-24 hrs
Haemophilus influenzae [15] = test: Antibacterial activity against Haemophilus influenzae HIN 19-18 assessed as inhibition of bacterial growth incubated for 20 to 24 hrs by CLSI based broth microdilution method; format: functional; conditions: HIN 19-18, time 20-24 hrs
Haemophilus influenzae [16] = test: Antibacterial activity against Haemophilus influenzae HIN 20-18 assessed as inhibition of bacterial growth incubated for 20 to 24 hrs by CLSI based broth microdilution method; format: functional; conditions: time 20-24 hrs
[17] = Cytotoxicity against mouse AML12 cells assessed as reduction in cell viability incubated for 48 hrs by MTT assay; format: toxicity, cell-based
Streptococcus pneumoniae [18] = test: Potency index, ratio of telithromycin MIC to test compound MIC for antibacterial activity against Streptococcus pneumoniae SPN19-13 assessed as inhibition of visible bacterial growth incubated for 18 hrs by broth microdilution method; format: functional
Streptococcus pneumoniae [19] = test: Potency index, ratio of telithromycin MIC to test compound MIC for antibacterial activity against Streptococcus pneumoniae SPN19-8 assessed as inhibition of visible bacterial growth incubated for 18 hrs by broth microdilution method; format: functional
Streptococcus agalactiae [20] = test: Antibacterial activity against erythromycin-resistant Streptococcus agalactiae 19-8 assessed as inhibition of visible bacterial growth incubated for 18 hrs by broth microdilution method; format: functional
Streptococcus pneumoniae [21] = test: Potency index, ratio of telithromycin MIC to test compound MIC for antibacterial activity against Streptococcus pneumoniae SPN19-14 assessed as inhibition of visible bacterial growth incubated for 18 hrs by broth microdilution method; format: functional
[22] = Moraxella catarrhalis, BCA 19-5, 24 h, read-out: MIC

SMILES	MIC (Streptococcus pyogenes) [µg/mL]	MIC (Streptococcus agalactiae [1]) [µg/mL]	MIC (Streptococcus pneumoniae [2]) [µg/mL]	MIC (Streptococcus pneumoniae [3]) [µg/mL]	MIC (Streptococcus pneumoniae [4]) [µg/mL]	MIC [5] [µg/mL]	MIC [6] [µg/mL]	MIC [7] [µg/mL]	MIC [8] [µg/mL]	MIC [9] [µg/mL]	MIC [10] [µg/mL]	MIC (Moraxella catarrhalis [11]; [22]) [µg/mL]	MIC (Moraxella catarrhalis [12]) [µg/mL]	MIC (Moraxella catarrhalis [13]) [µg/mL]	MIC (Haemophilus influenzae [14]) [µg/mL]	MIC (Haemophilus influenzae [15]) [µg/mL]	MIC (Haemophilus influenzae [16]) [µg/mL]	CC50 at 48 h [17] [µM]	MIC (Streptococcus agalactiae [20]) [µg/mL]	also measured
CC[C@H]1OC(=O)[C@@](C)(F)C(=O)[C@H](C)[C@@H](O[C@@H]2O[C@H](C)C[C@H](N(C)C)[C@H]2O)[C@](C)(OC)C[C@@H](C)C(=O)[C@H](C)[C@H]2N(CCCOC(=O)Nc3ccc(Cl)cc3)C(=O)O[C@]12C	< 0.03	1 (≈ 1.19 µM)	0.125 (≈ 0.148 µM)	0.125 (≈ 0.148 µM)	0.25 (≈ 0.297 µM)	< 0.03	0.125 (≈ 0.148 µM)	0.03 (≈ 0.0356 µM)	< 0.03	0.03 (≈ 0.0356 µM)	< 0.03	9.12 (≈ 10.8 µM)	0.25 (≈ 0.297 µM)	11.1 (≈ 13.2 µM)	8 (≈ 9.5 µM)	8 (≈ 9.5 µM)	16 (≈ 19 µM)	26		
CC[C@H]1OC(=O)[C@@](C)(F)C(=O)[C@H](C)[C@@H](O[C@@H]2O[C@H](C)C[C@H](N(C)C)[C@H]2O)[C@](C)(OC)C[C@@H](C)C(=O)[C@H](C)[C@H]2N(CCCOC(=O)Nc3ccc(C)cc3)C(=O)O[C@]12C	< 0.03	0.25 (≈ 0.304 µM)	< 0.03	< 0.03	0.06 (≈ 0.073 µM)	< 0.03	0.125 (≈ 0.152 µM)	< 0.03	< 0.03	< 0.03	< 0.03	0.03 (≈ 0.0365 µM)			8 (≈ 9.73 µM)	8 (≈ 9.73 µM)		83.2	< 0.03	Ratio (Streptococcus pneumoniae [18]): <4; Ratio (Streptococcus pneumoniae [19]): <4; Ratio (Streptococcus pneumoniae [21]): <4; MIC (Moraxella catarrhalis [11]; 24 h): <0.03 µg/mL
CC[C@H]1OC(=O)[C@H](C)[C@@H](O[C@H]2C[C@@](C)(OC)[C@@H](O)[C@H](C)O2)[C@H](C)[C@@H](O[C@@H]2O[C@H](C)C[C@H](N(C)C)[C@H]2O)[C@](C)(O)C[C@@H](C)CN(C)[C@H](C)[C@@H](O)[C@]1(C)O [AZITHROMYCIN]	0.25 (≈ 0.334 µM)	0.125 (≈ 0.167 µM)	4 (≈ 5.34 µM)	> 64	0.25 (≈ 0.334 µM)	0.25 (≈ 0.334 µM)	> 64	0.25 (≈ 0.334 µM)	0.5 (≈ 0.668 µM)	> 64	0.5 (≈ 0.668 µM)	> 64	> 64	0.125 (≈ 0.167 µM)	4 (≈ 5.34 µM)	4 (≈ 5.34 µM)	> 16	> 100	0.5 (≈ 0.668 µM)	
CC[C@H]1OC(=O)[C@@](C)(F)C(=O)[C@H](C)[C@@H](O[C@@H]2O[C@H](C)C[C@H](N(C)C)[C@H]2O)[C@](C)(OC)C[C@@H](C)C(=O)[C@H](C)[C@H]2N(CCCOC(=O)Nc3ccc(-c4ncccn4)cc3)C(=O)O[C@]12C	< 0.03	4 (≈ 4.51 µM)	0.25 (≈ 0.282 µM)	0.5 (≈ 0.564 µM)	0.25 (≈ 0.282 µM)	< 0.03	0.125 (≈ 0.141 µM)	0.125 (≈ 0.141 µM)	0.125 (≈ 0.141 µM)	0.06 (≈ 0.0677 µM)	< 0.03	0.25 (≈ 0.282 µM)	45 (≈ 50.8 µM)	0.25 (≈ 0.282 µM)	14 (≈ 15.8 µM)	16 (≈ 18.1 µM)	> 16	20.4		
CC[C@H]1OC(=O)[C@@](C)(F)C(=O)[C@H](C)[C@@H](O[C@@H]2O[C@H](C)C[C@H](N(C)C)[C@H]2O)[C@](C)(OC)C[C@@H](C)C(=O)[C@H](C)[C@H]2N(CCCOC(=O)Nc3cccc(C)c3C)C(=O)O[C@]12C	< 0.03	1 (≈ 1.2 µM)	0.06 (≈ 0.0718 µM)	0.06 (≈ 0.0718 µM)	0.125 (≈ 0.15 µM)	0.03 (≈ 0.0359 µM)	0.125 (≈ 0.15 µM)	< 0.03	0.03 (≈ 0.0359 µM)	0.03 (≈ 0.0359 µM)	< 0.03	0.125 (≈ 0.15 µM)	0.125 (≈ 0.15 µM)	0.125 (≈ 0.15 µM)	8 (≈ 9.57 µM)	8 (≈ 9.57 µM)	16 (≈ 19.1 µM)	26		
CC[C@H]1OC(=O)[C@@](C)(F)C(=O)[C@H](C)[C@@H](O[C@@H]2O[C@H](C)C[C@H](N(C)C)[C@H]2O)[C@](C)(OC)C[C@@H](C)C(=O)[C@H](C)[C@H]2N(CCCOC(=O)Nc3cccc(F)c3C)C(=O)O[C@]12C	< 0.03	0.5 (≈ 0.595 µM)	0.125 (≈ 0.149 µM)	0.125 (≈ 0.149 µM)	0.25 (≈ 0.298 µM)	< 0.03	0.5 (≈ 0.595 µM)	0.06 (≈ 0.0714 µM)	0.125 (≈ 0.149 µM)	0.06 (≈ 0.0714 µM)	< 0.03	0.125 (≈ 0.149 µM)	0.45 (≈ 0.536 µM)	0.06 (≈ 0.0714 µM)	8 (≈ 9.52 µM)	4 (≈ 4.76 µM)	16 (≈ 19 µM)	36.7		

Source: ChEMBL document CHEMBL5543097, “Synthesis and structure-activity relationships of novel 14-membered 2-fluoro ketolides with structural modification at the C11 position” (Eur J Med Chem, 2024)
